Assay results from PMC10609873, “Antidiabetic, Antihyperlipidemic, and Antioxidant Evaluation of Phytosteroids from Notholirion thomsonianum (Royle) Stapf” (Plants, 2023).
In brackets after ≈: the same amount, converted by molar mass. Values belong to the compound of their own block, whether it stands above or below them.

Experiments:
[1] = test system: alloxan-induced diabetic rats; assay: renal and liver function tests (biochemical profile of blood); conditions: NtSt01 1.0 mg/kg, standard glibenclamide; for S.Creatinine: reference range 0.4–0.8; for SGPT(ALT): reference range 17–30; for S.ALK.Phosphatase: reference range 30–130; for S.bilurubin: reference range up to 1.0
Procedure: Renal functions tests were performed to determine blood urea and serum creatinine [38]. To determine blood urea, enzyme reagent 1 (1000 µL) and 10 µL of serum were mixed together and incubated for 5 min at 25 °C, followed by the addition of 1000 µL of reagent 2 to the mixture. After 5 min, the absorbance was recorded at 578 nm.
Serum glutamate pyruvate transaminase (SGPT/ALT), alkaline phosphatase (ALP), and bilirubin tests were performed following standard protocols using micro lab 300 and tecno plus biochemistry analyzers [39]. To perform the SGPT/ALT test, 50 µL of serum sample was added to 500 µL of reagent (400 µL of reagent 1 and 100 µL of reagent 2). […] To determine ALP, a kit was used following the manufacturer’s specifications: 10 µL of serum sample was added to 500 µL of reagent (400 µL of reagent 1 and 100 µL of reagent 2). […] Similarly, the concentration of bilirubin was evaluated using standard protocols. Four types of reagents, R1, R2, R3, and R4, were used in this test. R2 (25 µL) was added to R1 (100 µL). After this, 100 µL of serum sample and 500 µL of R3 were added and allowed to stand at 25 °C for 5 min. Then, 500 µL of R4 was added; at 25 °C for 5 min, the mixture was incubated. The absorbance of the sample was recorded at 546 nm.

[2] = test system: alloxan-induced diabetic rats; assay: body weight of fasting rats during treatment; format: in vivo; conditions: NtSt01 1.0 mg/kg, glibenclamide 0.5 mg/kg
Procedure: Group 3: This group was the alloxan-induced diabetic group, which was treated with 0.5 mg/kg of the standard drug, glibenclamide.
Group 4: This group was the alloxan-induced diabetic group, which was treated with 1.0 mg/kg of NtSt01 intraperitoneally.

[3] = test system: alloxan-induced diabetic rats; assay: vital organ weights of fasting rats after treatment; format: in vivo; conditions: after the 28-day experiment; NtSt01 1.0 mg/kg, glibenclamide 0.5 mg/kg
Excerpt: The experimental rats were purchased from the Breeding House of National Institute Health, Islamabad, Pakistan. The average weights of these rats ranged from 220 to 250 g. The animals were handled as per the guidelines of the University of […] animals By-Laws 2008 (Scientific Procedure Issue I) under the approval of the ethical committee via letter No. DREC-140/B. The food, water, and light/dark cycles provided to animals were observed by the ethical committee. The animals were euthanized as per the AVMA guidelines version 2020. The animals were subjected to slow exposure of halothane vapors to induce anesthesia. There was a gradual increase in the dosage of halothane vapors, which eventually euthanized the animals. […] Group 3: […] Group 4: […]

[4] = test system: alloxan-induced diabetic rats; assay: lipid profile (antilipidemic effect); format: in vivo; conditions: NtSt01 1.0 mg/kg, glibenclamide 0.5 mg/kg; for LDL / S.Cholesterol: reference range 10–54; for S.Triglycerides: reference range 26–145; for HDL: reference range up to 50
Procedure: Standard methods were used for the analysis of total cholesterol, serum triglycerides, low-density lipoprotein (LDL), and high-density lipoprotein (HDL). Briefly, […] of serum sample was added to […] solution of triglyceride. The mixture was incubated for 10 min at 37 °C and the absorbance was recorded at 546 nm. To monitor blood cholesterol, diagnostic kits were utilized following the specifications of the manufacturer. […] For HDL concentration determination, 200 µL of serum sample and 500 µL of HDL solution were combined, and the mixture was allowed to stand at room temperature for 5 min. Again, the mixture was mixed and subjected to further centrifugation for 5 min, followed by supernatant collection. Then, 50 µL of supernatant of HDL was added to 500 µL of solution of cholesterol; the mixture was incubated at 37 °C for 5 min. Then, at 546 nm, the sample absorbance was measured. Similarly, LDL was determined in all groups following the manufacturer’s specifications. LDL = Total cholesterol […] − Triglycerides/5(4)

[5] = test system: rats; assay: acute toxicity study in rats; format: in vivo; conditions: dose started at 200 and increased up to 2000 mg/kg body weight
Procedure: In experimental animals, acute toxicity studies were performed to determine the safe dose of our test compounds for in vivo studies.

[6] = target: α-glucosidase (Saccharomyces cerevisiae, UniProt P53341); assay: in vitro α-glucosidase inhibition; format: biochemical
Sequence of α-glucosidase (P53341 whole entry): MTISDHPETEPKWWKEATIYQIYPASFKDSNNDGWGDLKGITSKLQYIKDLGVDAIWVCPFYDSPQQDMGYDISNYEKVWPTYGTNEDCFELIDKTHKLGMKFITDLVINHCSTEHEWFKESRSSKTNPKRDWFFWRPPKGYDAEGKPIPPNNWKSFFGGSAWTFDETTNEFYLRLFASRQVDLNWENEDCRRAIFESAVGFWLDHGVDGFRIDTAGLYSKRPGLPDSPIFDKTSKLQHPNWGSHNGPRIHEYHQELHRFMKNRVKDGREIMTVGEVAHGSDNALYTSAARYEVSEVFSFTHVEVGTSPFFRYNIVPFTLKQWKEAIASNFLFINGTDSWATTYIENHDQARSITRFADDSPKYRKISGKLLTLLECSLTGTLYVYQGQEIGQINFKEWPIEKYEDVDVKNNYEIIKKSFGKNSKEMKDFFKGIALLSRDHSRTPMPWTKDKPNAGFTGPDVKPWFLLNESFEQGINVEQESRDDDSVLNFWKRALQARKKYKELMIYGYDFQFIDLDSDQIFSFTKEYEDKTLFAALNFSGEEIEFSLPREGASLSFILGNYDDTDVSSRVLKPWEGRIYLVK
Procedure: The alpha-glucosidase inhibitory effects of our compounds were determined via a reported protocol. Sample dilutions (50 µL) and 100 µL of α-glucosidase solution (0.5 U/mL) were mixed. Then, 600 μL of phosphate buffer (0.1 M, pH 6.9) was added, and the mixture was incubated at 37 °C for 15 min. After this, 5 mM substrate (p-nitrophenyl α-D-glucopyranoside) solution (20 µL) in 0.1 M phosphate buffer (pH 6.9) was added and again incubated under the same conditions. Sodium carbonate was added to stop the reaction; at 405 nm, the absorbance was noted using a spectrophotometer. A mixture without α-glucosidase served as the blank, and a mixture without the test compound served as the control. The percent enzyme inhibition was calculated as:(1) % Alpha glucosidase inhibition=Control abs.−Sample abs./Control abs.×100

[7] = DPPH free radical scavenging assay
Procedure: To evaluate the antioxidant potential of our compounds, the DPPH free radical scavenging assay developed by Brand William was used. The DPPH solution was made by dissolving 20 mg of DPPH in 100 mL of methanol, and its absorbance at 517 nm was adjusted to 0.75. Then, 2 mL of DPPH solution was added to 2 mL of sample dilutions ranging from 31.25 to 500 µg/mL, and the mixture was incubated at room temperature in the dark for 15 min. […] (3) % Inhibition=Control abs.−Sample abs./Control abs.×100

[8] = test system: α-amylase; assay: in vitro α-amylase inhibition; format: biochemical
Procedure: The inhibitory activity of our compounds against alpha-amylase enzymes was determined as per the previously reported protocols. Test samples of 100 µL were mixed with an enzyme solution (200 µL) and 100 µL of phosphate buffer (pH 6.9, 2 mM). The mixture was then incubated at 25 °C for 20 min, followed by the addition of 100 µL of starch solution (1%). The same procedure was followed for positive controls, where phosphate buffer was added instead of […] (200 µL). After 5 min of incubation, 3,5-dinitrosalicylic acid reagent (500 µL) was added to the test samples and control group. The mixtures were incubated again for 10 min; at 580 nm, the absorbance was recorded using a spectrophotometer. The alpha-amylase percent inhibition was calculated as:(2) % Amylase inhibition=1−Test sample abs./Control abs.×100

S.Creatinine [1]: 0.43 ± 0.01 mg/dL
S.ALK.Phosphatase [1]: 125 ± 1.22 U/L
S.bilurubin [1]: 0.81 ± 0.03 mg/dL
Heart weight [3]: 0.90 ± 0.02 g
Kidney weight [3]: 0.99 ± 0.16 g
Liver weight [3]: 9.21 ± 0.66 g
Pancreas weight [3]: 0.84 ± 0.21 g
Compound: COc1ccc(Cl)cc1C(=O)NCCc1ccc(S(=O)(=O)NC(=O)NC2CCCCC2)cc1 [Glibenclamide, glibenclamide, reference compound]
SGPT(ALT) [1]: 37 ± 1.11 U/L
body weight ([2]; Day 1): 235 ± 1.36 g
body weight ([2]; Day 7): 236 ± 1.37 g
body weight ([2]; Day 14): 239 ± 0.67 g
body weight ([2]; Day 21): 244 ± 2.38 g
body weight ([2]; Day 28): 249 ± 3.18 g
LDL [4]: 34.16 ± 2.66
S.Cholesterol [4]: 59.98 ± 0.99
S.Triglycerides [4]: 112 ± 0.99
HDL [4]: 32.55 ± 2.35

Compound: CCC(C=CC(C)C1CCC2C3C=CC4=CC(OC(C)=O)CCC4(C)C3CCC12C)C(C)C (stereo not drawn) [NtSt01, 3-β-Acetoxystigmasta-4,6,22-triene]
acute toxicity observation [5]: safe and no morbidity, mortality or irritation was observed
S.Creatinine [1]: 0.6 ± 0.02 mg/dL
SGPT(ALT) [1]: 32 ± 0.25 U/L
S.ALK.Phosphatase [1]: 134 ± 2.33 U/L
S.bilurubin [1]: 0.72 ± 0.77 mg/dL
body weight ([2]; Day 1): 238 ± 0.33 g
body weight ([2]; Day 7): 240 ± 0.49 g
body weight ([2]; Day 14): 242 ± 1.04 g
body weight ([2]; Day 21): 245 ± 1.11 g
body weight ([2]; Day 28): 246 ± 0.11 g
Heart weight [3]: 1.04 ± 0.13 g
Kidney weight [3]: 1.01 ± 0.15 g
Liver weight [3]: 9.83 ± 0.92 g
Pancreas weight [3]: 0.92 ± 0.12 g
LDL [4]: 48.85 ± 1.08
S.Cholesterol [4]: 77.45 ± 1.72
S.Triglycerides [4]: 125 ± 3.65
HDL [4]: 38.10 ± 1.64
potency relative to NtSt02 (from IC50 values) ([6]; α-glucosidase): three times more potent than NtSt02
IC50 [7]: 142.76 µg/mL (≈ 315 µM)
Percent Inhibition (Mean ± SEM) ([7]; 31.25 μg/mL): 37.25 ± 2.66%
Percent Inhibition (Mean ± SEM) ([7]; 62.50 μg/mL): 42.53 ± 0.69%
Percent Inhibition (Mean ± SEM) ([7]; 125 μg/mL): 47.08 ± 2.41%
Percent Inhibition (Mean ± SEM) ([7]; 250 μg/mL): 55.79 ± 0.92%
Percent Inhibition (Mean ± SEM) ([7]; 500 μg/mL): 61.05 ± 2.05%
Percent Inhibition (Mean ± SEM) ([8]; 31.25 μg/mL): 62.35 ± 1.78%
Percent Inhibition (Mean ± SEM) ([8]; 62.50 μg/mL): 67.63 ± 2.51%
Percent Inhibition (Mean ± SEM) ([8]; 125 μg/mL): 71.63 ± 0.92%
Percent Inhibition (Mean ± SEM) ([8]; 250 μg/mL): 75.52 ± 0.96%
Percent Inhibition (Mean ± SEM) ([8]; 500 μg/mL): 80.03 ± 2.11%
IC50 ([8]; α-amylase): 4.17 µg/mL (≈ 9.21 µM)
potency relative to NtSt02 (from IC50 values) ([8]; α-amylase): eleven folds more potent than NtSt02

Compound: CC(C)CCC[C@@H](C)[C@H]1CC[C@H]2[C@@H]3C=CC4=C[C@@H](OC(=O)c5ccccc5)CC[C@]4(C)[C@H]3CC[C@]12C [NtSt02, 4,6-cholestadien-3beta-ol, benzoate]
IC50 [7]: 223.43 µg/mL (≈ 457 µM)
Percent Inhibition (Mean ± SEM) ([7]; 31.25 μg/mL): 28.52 ± 2.63%
Percent Inhibition (Mean ± SEM) ([7]; 62.50 μg/mL): 33.08 ± 1.17%
Percent Inhibition (Mean ± SEM) ([7]; 125 μg/mL): 42.99 ± 2.70%
Percent Inhibition (Mean ± SEM) ([7]; 250 μg/mL): 52.01 ± 1.07%
Percent Inhibition (Mean ± SEM) ([7]; 500 μg/mL): 59.12 ± 1.96%
Percent Inhibition (Mean ± SEM) ([8]; 31.25 μg/mL): 46.84 ± 0.67%
Percent Inhibition (Mean ± SEM) ([8]; 62.50 μg/mL): 53.10 ± 2.05%
Percent Inhibition (Mean ± SEM) ([8]; 125 μg/mL): 60.04 ± 0.86%
Percent Inhibition (Mean ± SEM) ([8]; 250 μg/mL): 64.32 ± 1.85%
Percent Inhibition (Mean ± SEM) ([8]; 500 μg/mL): 74.99 ± 1.53%
IC50 ([8]; α-amylase): 46.73 µg/mL (≈ 95.6 µM)

Compound: C[C@H]1O[C@H](O[C@H]2[C@H](O)[C@@H](O)[C@@H](O[C@H]3[C@H](O)[C@@H](O)C(O)O[C@@H]3CO)O[C@@H]2CO)[C@H](O)[C@@H](O)[C@@H]1N[C@H]1C=C(CO)[C@@H](O)[C@H](O)[C@H]1O (stereo partly drawn) [acarbose, reference compound]
Percent Inhibition (Mean ± SEM) [6]: 92.65 ± 0.55%
Percent Inhibition (Mean ± SEM) ([8]; 500 μg/mL): 91.01 ± 1.36%
